The values below come from patent US9271969B2, “Compounds as inhibitors of diacylglycerol O-acyltransferase type 1 enzyme” (KAINOS MEDICINE, INC., priority 2012, dated 2016).

One assay concerns the target mouse DGAT1 (Mus musculus (Mouse), UniProt Q9Z2A7). The assay can be described thus: Radiometric DGAT1 assay, mouse liver microsomes. The class given is biochemical. Particulars: mouse liver microsomes having mouse DGAT1 activity. An excerpt: (§1) A second source of DGAT1 activity was human or mouse liver microsomes.
On the technique in general: Liver microsomes are a subcellular fraction often used to study metabolism.

For assay [1], the target named is T1, human DGAT1 (Homo sapiens (Human), UniProt O75907). Put plainly: biochemical.
T1 sequence (O75907 whole entry): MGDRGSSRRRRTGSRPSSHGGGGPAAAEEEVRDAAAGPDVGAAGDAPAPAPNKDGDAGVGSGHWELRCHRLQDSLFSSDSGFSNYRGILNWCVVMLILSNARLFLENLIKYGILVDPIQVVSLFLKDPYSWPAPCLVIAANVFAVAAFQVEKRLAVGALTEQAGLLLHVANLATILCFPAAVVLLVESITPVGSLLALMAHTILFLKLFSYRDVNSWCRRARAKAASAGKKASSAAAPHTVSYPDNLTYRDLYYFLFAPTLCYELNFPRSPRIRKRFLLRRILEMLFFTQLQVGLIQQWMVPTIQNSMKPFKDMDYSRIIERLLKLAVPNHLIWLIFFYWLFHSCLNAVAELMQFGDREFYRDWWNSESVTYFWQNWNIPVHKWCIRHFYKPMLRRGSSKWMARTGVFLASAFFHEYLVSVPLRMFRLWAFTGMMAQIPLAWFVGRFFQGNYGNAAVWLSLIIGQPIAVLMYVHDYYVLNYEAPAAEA
Protocol: For this assay, a source of DGAT1 was needed. In that regard, a commercially available plasmid for expression of DGAT1 (e.g., pCMV6-recombinant human DGAT1 plasmid) was transfected for 24 hours in Hep3B cells. After transfection of the plasmid, human DGAT-1 expression was analyzed by Western blot or RT-PCR using whole cell extracts. […] Human and mouse DGAT activity were determined as follows.
The plates were sealed, incubated overnight and counted the next morning on a liquid scintillation counter and luminometer.
DGAT1 catalyzes the transfer of the radiolabelled decanoyl group onto the sn-3 position of didecanoyl glycerol. The resultant radiolabeled tridecanoyl glycerol (tricaprin) preferentially binds to the hydrophobic coating on the phospholipid-coated radiometric assay plate. The proximity of the radiolabeled product to the solid scintillant incorporated into the bottom of the radiometric assay plate induced for release from the scintillant, which was measured in the liquid scintillation counter and luminometer.
IC50 values of the compounds were determined from concentration-dependent inhibition curves by using commercially available software.
In assay [2] the target is T1, human DGAT1. The assay can be described thus: Radiometric DGAT1 assay, human liver microsomes. Particulars: Source of human DGAT activity B = human liver microsomes. Format: biochemical.
Source text: as §1

Sequence of mouse DGAT1 (Q9Z2A7 whole entry): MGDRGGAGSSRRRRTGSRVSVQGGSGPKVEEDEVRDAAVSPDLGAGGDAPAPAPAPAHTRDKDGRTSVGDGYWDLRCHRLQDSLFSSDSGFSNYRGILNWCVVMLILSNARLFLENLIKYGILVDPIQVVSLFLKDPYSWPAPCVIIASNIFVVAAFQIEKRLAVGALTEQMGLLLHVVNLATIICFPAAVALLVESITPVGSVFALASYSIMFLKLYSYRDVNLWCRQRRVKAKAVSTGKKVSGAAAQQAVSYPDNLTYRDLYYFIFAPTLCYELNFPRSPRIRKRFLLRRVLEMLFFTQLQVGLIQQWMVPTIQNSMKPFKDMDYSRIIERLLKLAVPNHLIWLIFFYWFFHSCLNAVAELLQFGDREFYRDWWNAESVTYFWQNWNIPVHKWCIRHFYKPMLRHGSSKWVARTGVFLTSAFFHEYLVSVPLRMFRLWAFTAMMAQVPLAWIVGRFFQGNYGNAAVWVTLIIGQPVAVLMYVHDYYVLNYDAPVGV

On to `O=C(O)C[C@H]1CC[C@H](c2ccc(-c3ccc4nc(C(=O)NCc5ccc(OC(F)(F)F)cc5)cn4c3)cc2)CC1` [Compound 1, 2-((1r,4r)-4-(4-(2-((4-(Trifluoromethoxy)benzyl)carbamoyl)imidazo[1,2-a]pyridin-6-yl)phenyl)cyclohexyl)acetic acid], for which the IC50 (as a rule, the point on the concentration scale where inhibition reaches its midpoint) was < 50 nM against mouse DGAT1 and < 10 nM at human DGAT1 [1].

With `O=C(O)C[C@H]1CC[C@H](c2ccc(-c3ccc4nc(C(=O)Nc5ccc(C(F)(F)F)cc5)cn4c3)cc2)CC1` [Compound 2, 2-((1r,4r)-4-(4-(2-((4-(Trifluoromethyl)phenyl)carbamoyl)imidazo[1,2-a]pyridin-6-yl)phenyl)-cyclohexyl)acetic acid], the IC50 is < 200 nM at mouse DGAT1 and < 10 nM on human DGAT1 [1].

In the case of `O=C(O)C[C@H]1CC[C@H](c2ccc(-c3ccc4nc(C(=O)Nc5ccc(OC(F)(F)F)cc5)cn4c3)cc2)CC1` [Compound 3, 2-((1r,4r)-4-(4-(2-((4-(Trifluoromethoxy)phenyl)carbamoyl)imidazo[1,2-a]pyridin-6-yl)-phenyl)cyclohexyl)acetic acid], the values for the IC50 on mouse DGAT1 and against human DGAT1 [1] were < 75 nM and < 10 nM, respectively.

As to `O=C(O)C[C@H]1CC[C@H](c2ccc(-c3ccc4nc(C(=O)NCc5cc(OC(F)(F)F)ccc5F)cn4c3)cc2)CC1` [Compound 9, 2-((1r,4r)-4-(4-(2-((2-Fluoro-5-(trifluoromethoxy)benzyl)carbamoyl)imidazo[1,2-a]pyridin-6-yl)phenyl)cyclohexyl)acetic acid], the IC50 at mouse DGAT1 and at human DGAT1 [1] was < 50 nM throughout.

With `O=C(O)C[C@H]1CC[C@H](c2ccc(-c3ccc4nc(C(=O)NCc5ccc(F)c(OC(F)(F)F)c5)cn4c3)cc2)CC1` [Compound 10, 2-((1r,4r)-4-(4-(2-((4-Fluoro-3-(trifluoromethoxy)benzyl)carbamoyl)imidazo[1,2-a]pyridin-6-yl)phenyl)cyclohexyl)acetic acid], the IC50 at mouse DGAT1 and against human DGAT1 [1] was < 75 nM each time.

As to `O=C(O)C[C@H]1CC[C@H](c2ccc(-c3ccc4nc(C(=O)NCc5ccc(C(F)(F)F)c(F)c5)cn4c3)cc2)CC1` [Compound 11, 2-((1r,4r)-4-(4-(2-((3-Fluoro-4-(trifluoromethyl)benzyl)carbamoyl)imidazo[1,2-a]pyridin-6-yl)phenyl)cyclohexyl)acetic acid], the half-maximal inhibitory concentration (IC50) on mouse DGAT1 was < 75 nM; against human DGAT1 [1], < 50 nM.

In the case of `COc1ccc(CNC(=O)c2cn3cc(-c4ccc([C@H]5CC[C@H](CC(=O)O)CC5)cc4)ccc3n2)cc1` [Compound 12, 2-((1r,4r)-4-(4-(2-((4-Methoxybenzyl)carbamoyl)imidazo[1,2-a]pyridin-6-yl)-phenyl)cyclohexyl)acetic acid], the IC50 is < 150 nM against mouse DGAT1 and < 25 nM against human DGAT1 [1].

With `COc1ccc(OC(F)(F)F)cc1CNC(=O)c1cn2cc(-c3ccc([C@H]4CC[C@H](CC(=O)O)CC4)cc3)ccc2n1` [Compound 18, 2-((1r,4r)-4-(4-(2-((2-Methoxy-5-(trifluoromethoxy)benzyl)carbamoyl)imidazo[1,2-a]-pyridin-6-yl)phenyl)cyclohexyl)acetic acid], the figures for the IC50 against mouse DGAT1 and on human DGAT1 [1] were < 1 nM and < 10 nM, respectively.

Consider `CC(C)c1ccc(CNC(=O)c2cn3cc(-c4ccc([C@H]5CC[C@H](CC(=O)O)CC5)cc4)ccc3n2)cc1` [Compound 19], for which the IC50 on mouse DGAT1 is < 1 nM; at human DGAT1 [1], < 10 nM.

As to `Cc1ccccc1NC(=O)c1cn2cc(-c3ccc([C@H]4CC[C@H](CC(=O)O)CC4)cc3)ccc2n1` [Compound 32, 2-((1r,4r)-4-(4-(2-(o-Tolylcarbamoyl)imidazo[1,2-a]pyridin-6-yl)phenyl)cyclohexyl)acetic acid], the IC50 against mouse DGAT1 and on human DGAT1 [1] was < 1 nM each time.

On to `O=C(O)C[C@H]1CC[C@H](c2ccc(-c3ccc4nc(C(=O)Nc5ccc(F)cc5C(F)(F)F)cn4c3)cc2)CC1` [Compound 33, 2-((1r,4r)-4-(4-(2-((4-Fluoro-2-(trifluoromethyl)phenyl)carbamoyl)imidazo[1,2-a]pyridin-6-yl)phenyl)cyclohexyl)acetic acid], for which the concentration for half-maximal inhibition (IC50) was < 750 nM against mouse DGAT1 and < 250 nM against human DGAT1 [1].

As for `O=C(O)C[C@H]1CC[C@H](c2ccc(-c3ccc4nc(C(=O)Nc5ccccc5C(F)(F)F)cn4c3)cc2)CC1` [Compound 34, 2-((1r,4r)-4-(4-(2-((2-(Trifluoromethyl)phenyl)carbamoyl)imidazo[1,2-a]pyridin-6-yl)phenyl)cyclohexyl)acetic acid], the results for the IC50 against mouse DGAT1 and at human DGAT1 [1] were < 450 nM and < 150 nM, respectively.

As to `O=C(O)C[C@H]1CC[C@H](c2ccc(-c3ccc4nc(C(=O)Nc5ccccc5F)cn4c3)cc2)CC1` [Compound 35, 2-((1r,4r)-4-(4-(2-((2-Fluorophenyl)carbamoyl)imidazo[1,2-a]pyridin-6-yl)phenyl)cyclohexyl)acetic acid], the values for the IC50 against mouse DGAT1 and against human DGAT1 [1] were < 550 nM and < 200 nM, respectively.

Consider `COc1ccccc1NC(=O)c1cn2cc(-c3ccc([C@H]4CC[C@H](CC(=O)O)CC4)cc3)ccc2n1` [Compound 36, 2-((1r,4r)-4-(4-(2-((2-Methoxyphenyl)carbamoyl)imidazo[1,2-a]pyridin-6-yl)phenyl)cyclohexyl)acetic acid], for which the IC50 against mouse DGAT1 is < 75 nM; against human DGAT1 [1], < 100 nM.

Regarding `Cc1ccc(CNC(=O)c2nc3ccc(-c4ccc(C5CCC(CC(=O)O)CC5)cc4)cn3n2)cc1` (stereo not shown) [Compound 45, 2-((1s,4s)-4-(4-(2-((4-Methylbenzyl)carbamoyl)-[1,2,4]triazolo[1,5-a]pyridin-6-yl)phenyl)cyclohexyl)acetic acid], the IC50 at human DGAT1 [2] and against mouse DGAT1 was < 50 nM in each case.

Turning to `CC(C)(C)c1ccc(CNC(=O)c2cn3cc(-c4ccc([C@H]5CC[C@H](CC(=O)O)CC5)cc4)sc3n2)cc1` [Compound 46, 2-((1r,4r)-4-(4-(6-((4-(tert-Butyl)benzyl)carbamoyl)imidazo[2,1-b]thiazol-2-yl)phenyl)-cyclohexyl)acetic acid], the values for the IC50 against human DGAT1 [2] and against mouse DGAT1 were < 1 nM and < 50 nM, respectively.

On to `O=C(O)C[C@H]1CC[C@H](c2ccc(-c3cn4cc(C(=O)NCc5cccc(OC(F)(F)F)c5)nc4s3)cc2)CC1` [Compound 50, 2-((1r,4r)-4-(4-(6-((3-(Trifluoromethoxy)benzyl)carbamoyl)imidazo[2,1-b]thiazol-2-yl)-phenyl)cyclohexyl)acetic acid], for which the IC50 at human DGAT1 [2] is < 50 nM; against mouse DGAT1 it was < 25 nM.

On to `O=C(O)C[C@H]1CC[C@H](c2ccc(-c3cn4cc(C(=O)NCc5cc(OC(F)(F)F)ccc5F)nc4s3)cc2)CC1` [Compound 51, 2-((1r,4r)-4-(4-(6-((2-Fluoro-5-(trifluoromethoxy)benzyl)carbamoyl)imidazo[2,1-b]thiazol-2-yl)phenyl)cyclohexyl)acetic acid], for which the IC50 on human DGAT1 [2] and against mouse DGAT1 was < 50 nM each time.

Regarding `O=C(O)C[C@H]1CC[C@H](c2ccc(-c3cn4cc(C(=O)Nc5cccc(OC(F)(F)F)c5)nc4s3)cc2)CC1` [Compound 52, 2-((1r,4r)-4-(4-(6-((3-(Trifluoromethoxy)phenyl)carbamoyl)imidazo[2,1-b]thiazol-2-yl)-phenyl)cyclohexyl)acetic acid], the IC50 against human DGAT1 [2] and against mouse DGAT1 was < 10 nM in each case.

Turning to `CC(C)c1ccc(CNC(=O)c2cn3cc(-c4ccc([C@H]5CC[C@H](CC(=O)O)CC5)cc4)sc3n2)cc1` [Compound 53, 2-((1r,4r)-4-(4-(6-((4-Isopropylbenzyl)carbamoyl)imidazo[2,1-b]thiazol-2-yl)phenyl)cyclohexyl)acetic acid], the results for the IC50 at human DGAT1 [2] and at mouse DGAT1 were < 25 nM and < 100 nM, respectively.

`O=C(O)C[C@H]1CC[C@H](c2ccc(-c3cn4cc(C(=O)NC5(c6cc(F)ccc6F)CC5)nc4s3)cc2)CC1` [Compound 54, 2-((1r,4r)-4-(4-(6-((1-(2,5-Difluorophenyl)cyclopropyl)carbamoyl)imidazo[2,1-b]thiazol-2-yl)phenyl)cyclohexyl)acetic acid]: the IC50 against human DGAT1 [2] is < 10 nM; against mouse DGAT1, < 25 nM.

With `COc1ccc(OC(F)(F)F)cc1CNC(=O)c1cn2cc(-c3ccc([C@H]4CC[C@H](CC(=O)O)CC4)cc3)sc2n1` [Compound 55, 2-((1r,4r)-4-(4-(6-((2-Methoxy-5-(trifluoromethoxy)benzyl)carbamoyl)imidazo[2,1-b]-thiazol-2-yl)phenyl)cyclohexyl)acetic acid], the values for the IC50 against human DGAT1 [2] and at mouse DGAT1 were < 10 nM and < 25 nM, respectively.

Consider `O=C(O)C[C@H]1CC[C@H](c2ccc(-c3cn4cc(C(=O)NCc5ccc(OC(F)(F)F)cc5)nc4s3)cc2)CC1` [Compound 56, 2-((1r,4r)-4-(4-(6-((4-(Trifluoromethoxy)benzyl)carbamoyl)imidazo[2,1-b]thiazol-2-yl)-phenyl)cyclohexyl)acetic acid], for which the IC50 on human DGAT1 [2] is < 10 nM; against mouse DGAT1, < 50 nM.

Turning to `CC(C)(C(=O)O)[C@H]1CC[C@H](c2ccc(-c3ccc4nc(C(=O)NCc5ccccc5)cn4c3)cc2)CC1` [Compound 65, 2-((1r,4r)-4-(4-(2-(Benzylcarbamoyl)imidazo[1,2-a]pyridin-6-yl)phenyl)cyclohexyl)-2-methylpropanoic acid], the concentration for half-maximal inhibition (IC50) at human DGAT1 [2] is < 10 nM; against mouse DGAT1, < 125 nM.

In the case of `CC(C)(C(=O)O)[C@H]1CC[C@H](c2ccc(-c3ccc4nc(C(=O)NCc5ccc(OC(F)(F)F)cc5)cn4c3)cc2)CC1` [Compound 66, 2-Methyl-2-((1r,4r)-4-(4-(2-((4-(trifluoromethoxy)benzyl)carbamoyl)imidazo[1,2-a]pyridin-6-yl)phenyl)cyclohexyl)propanoic acid], the IC50 against human DGAT1 [2] was < 10 nM; at mouse DGAT1 it was < 50 nM.

As for `Cc1cccc(Cl)c1CNC(=O)c1cn2cc(-c3ccc(C4CCC(C(C)(C)C(=O)O)CC4)cc3)ccc2n1` (stereo not shown) [Compound 67, 2-((1s,4s)-4-(4-(2-((2-Chloro-6-methylbenzyl)carbamoyl)imidazo[1,2-a]pyridin-6-yl)phenyl)cyclohexyl)-2-methylpropanoic acid], the concentration for half-maximal inhibition (IC50) against human DGAT1 [2] was < 25 nM; at mouse DGAT1 it was < 50 nM.
